Assays:
S. rochei A4 = test: Substrate removal by Streptomyces culture; type: cell-based, Streptomyces rochei; conditions: growth period 14 days
Source text: (§1) Replicate sterile controls also were run in each experiment.

S. badius 252 = type: cell-based; conditions: streptomyces badius 252 culture, 336 h
Source text: (§2) Microbiol., 1984, 130:2905-2913.
as §1

S. diastaticus A12 = type: cell-based; conditions: streptomyces diastaticus a12 culture, 336 h
Source text: as §2, §1

S. diastaticus A13 = type: cell-based; conditions: streptomyces diastaticus a13 culture, 336 h
Source text: as §2, §1

S. rochei A10 = type: cell-based; conditions: streptomyces rochei a10 culture, 336 h
Source text: as §2, §1

S. rochei A14 = type: cell-based; conditions: streptomyces rochei a14 culture, 336 h
Source text: as §2, §1

S. chromofuscus A11 = conditions: streptomyces chromofuscus a11 culture, 336 h
Method: as §2, §1
The Streptomyces were grown on the same media and under the same conditions as previously described. […] Thus, the spectrophotometric assays for substrates 1-12 were carried out at their specific isobastic points. Degradation was calculated as percent of substrates removed from culture broth, considering the evaporation factor (around 10%).

S. chromofuscus A20 = conditions: streptomyces chromofuscus a20 culture, 336 h
Method: (§3) Each Streptomyces species was grown in a cotton-plugged 250 ml flask containing 25 ml of the following medium: 0.2M Tris buffer (pH 7.6), 100 ml; vitamin-free Casamino acids (Difco), 1.0 g; thiamine, 100 μg; biotin, 100 μg; D-glucose, 2 g; deionized water, 900 ml.
The dyes were filter-sterilized and added at 0.005% (w/v) to the autoclaved basal medium. Alternatively, azo dye stock solutions were sterilized by filtration (pore size 0.2 μm) and added to autoclaved basal medium at concentrations of 50 or 100 ppm. Three replicates of every culture were incubated, and each strain was grown in media supplemented individually with every substrate. Replicate sterile controls also were run in each experiment. Cultures were incubated at 37° C. for 14 days with shaking (200-250 rpm). Three replicates for each strain growth were incubated in only the basal medium as well.
A one ml sample of culture medium was centrifuged and then diluted 2.5-5.0 fold (actinomycete culture) or 5- to 10-fold (fungal culture) with distilled water. Alternatively, 1.0 ml of fungal supernatant was centrifuged and diluted 5-fold with 10 mM sodium 2,2-dimethylsuccinate buffer (DMS) of pH 4.5. Azo dye substrate present was then measured spectrophotometrically with a Hewlett-Packard 8452 diode array spectrophotometer operated by a PC Vectra computer equipped with HP's MS™-DOS/UV-VIS software. To be certain that changes in substrate spectra were not due to pH variations, the effects of pH on the visible absorption of each compound were also assayed within physiological pH range in the culture media. […] Thus, the spectrophotometric assays for the dyes were typically carried out at their isobestic points. For instance, the spectrophotometric assays were carried out at 450 nm for azo dye 1 and 400 nm for azo dye 2. […] The compounds were quantified by first developing standard curves of absorbance versus concentrations (0-50 μg) and then comparing measured absorbance values to the standard curves.

S. viridosporus T7A = test: Substrate removal by Streptomyces culture; conditions: growth period 14 days
Method: as §3
The dyes were filter-sterilized and added at 0.005% (w/v) to the autoclaved basal medium. Alternatively, azo dye stock solutions were sterilized by filtration (pore size 0.2 μm) and added to autoclaved basal medium at concentrations of 50 or 100 ppm. Three replicates of every culture were incubated, and each strain was grown in media supplemented individually with every substrate. Replicate sterile controls also were run in each experiment. […] Three replicates for each strain growth were incubated in only the basal medium as well.
A one ml sample of culture medium was centrifuged and then diluted 2.5-5.0 fold (actinomycete culture) or 5- to 10-fold (fungal culture) with distilled water. Alternatively, 1.0 ml of fungal supernatant was centrifuged and diluted 5-fold with 10 mM sodium 2,2-dimethylsuccinate buffer (DMS) of pH 4.5. […] To be certain that changes in substrate spectra were not due to pH variations, the effects of pH on the visible absorption of each compound were also assayed within physiological pH range in the culture media. While the spectra of sulfanilic acid (Max abs at 250 nm), vanillic acid (Max abs at 252 nm and 286 nm) and acid yellow 9 (Max abs at 336 nm) were unaffected by pH over the tested pH range, the spectra of several novel azo dyes were changed as evidenced by shifts of their Absmax. Thus, the spectrophotometric assays for the dyes were typically carried out at their isobestic points. […] Spectrophotometric measurements were carried out at the absorbance maxima for azo dyes 16, 17, 18, 19, 31, and 32 (See Table 1 below). […] The compounds were quantified by first developing standard curves of absorbance versus concentrations (0-50 μg) and then comparing measured absorbance values to the standard curves.

COc1cc(C(=O)O)ccc1O [Vanillic acid, 4-hydroxy-3-methoxybenzoic acid, reference compound] was tested, and the “Percent substrate removed, S. rochei A4” value (S. rochei A4) was 100%, the “Percent substrate removed, S. badius 252” value (S. badius 252) was 7% and the “Percent substrate removed, S. diastaticus A12” value (S. diastaticus A12) was 58%. The “Percent substrate removed, S. diastaticus A13” value (S. diastaticus A13) was 34%, the “Percent substrate removed, S. rochei A10” value (S. rochei A10) was 91% and the “Percent substrate removed, S. rochei A14” value (S. rochei A14) was 72%. For the same molecule, the “Percent substrate removed, S. chromofuscus A11” value (S. chromofuscus A11) was 100%, the “Percent substrate removed, S. chromofuscus A20” value (S. chromofuscus A20) was 5% and the “Percent substrate removed, S. viridosporus T7A” value (S. viridosporus T7A) was 3%.

— US5618726A, “Biodegradable azo dyes” (priority 1994, dated 1997)
